Earlier results on one compound are cited in patent US12662707B2, “MYC amplification drives resistance to pan-RAS inhibitors in pancreatic cancer” (The Trustees of Columbia University in the City of New York, priority 2024, dated 2026).

This series deals with autochthonous KPC pancreatic tumors. To be noted: reference 27; cited from earlier work.

For the compound `Nc1ccn([C@@H]2O[C@H](CO)[C@@H](O)C2(F)F)c(=O)n1` [gemcitabine], the “effect on survival in the KPC model” value is “do not significantly alter survival”.
